Test results reported in the supplement of paper PMC10307832.

How the values were obtained:
Test in all cases: relative viability (nuclei count vs DMSO), 5 days (fraction); higher = more cells survive
[1] = compound: CC[C@@H](C)CNCC(=O)N1CCC2=C([C@@H]1COC3=CC=CC(=C3)C)C=CS2 [RU-SKI 43] + CC1(C)CCC(c2ccc(Cl)cc2)=C(CN2CCN(c3ccc(C(=O)NS(=O)(=O)c4ccc(N[C@H](CCN5CCOCC5)CSc5ccccc5)c(S(=O)(=O)C(F)(F)F)c4)cc3)CC2)C1 [Navitoclax] (partner 0.5 µM)
Outline: (§1)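 Lung cancer cell lines in 1536-well plates got either a single drug or a fixed anchor-drug dose together with five library-drug doses (not always all listed) in √10 steps, by pin tool, on the day after seeding. Nuclei were counted after 5 days, and relative viability is the treated-to-vehicle ratio of nuclei counts. Values are medians of duplicate plates.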

[2] = compound: CC[C@@H](C)CNCC(=O)N1CCC2=C([C@@H]1COC3=CC=CC(=C3)C)C=CS2 [RU-SKI 43] + Cc1nc(NC(=O)N2CCC[C@H]2C(N)=O)sc1-c1ccnc(C(C)(C)C(F)(F)F)c1 [Alpelisib] (partner 2 µM)
Outline: as §1

[3] = compound: CCc1c2c(nc3ccc(OC(=O)N4CCC(N5CCCCC5)CC4)cc13)-c1cc3c(c(=O)n1C2)COC(=O)[C@]3(O)CC [Irinotecan] + O=C(c1cc(Cc2n[nH]c(=O)c3ccccc23)ccc1F)N1CCN(C(=O)C2CC2)CC1 [Olaparib] (partner 8 µM)
Outline: as §1

[4] = compound: Cn1cc(-c2cnc3ccc4ccc(CS(=O)(=O)NCc5ccccn5)cc4c(=O)c3c2)cn1 [MK-8033] + COc1cccc2cc(-c3nc([C@H]4CC[C@H](C(=O)O)CC4)n4ncnc(N)c34)[nH]c12 [OSI-027] (partner 0.5 µM)
Outline: as §1

UMC-11
relative viability ([1]; first compound 0.1 µM): 0.276
relative viability ([1]; first compound 0.3162 µM): 0.315
relative viability ([1]; first compound 1 µM): 0.321
relative viability ([1]; first compound 3.162 µM): 0.305
relative viability ([1]; first compound 10 µM): 0.267
relative viability ([2]; first compound 0.1 µM): 1.06
relative viability ([2]; first compound 0.3162 µM): 1.18
relative viability ([2]; first compound 1 µM): 1.16
relative viability ([2]; first compound 3.162 µM): 1.04
relative viability ([2]; first compound 10 µM): 0.901
relative viability ([3]; first compound 0.6325 µM): 0.273
relative viability ([3]; first compound 2 µM): 0.206
relative viability ([3]; first compound 6.325 µM): 0.283
relative viability ([3]; first compound 20 µM): 0.226
relative viability ([4]; first compound 0.02 µM): 0.483
relative viability ([4]; first compound 0.06325 µM): 0.447
relative viability ([4]; first compound 0.2 µM): 0.381
relative viability ([4]; first compound 2 µM): 0.457
